The values that follow come from US11014911B2, “CDK2 inhibitors” (Pfizer Inc., priority 2019, dated 2021).

For one assay, the target named is GSK3β (H350L) (Homo sapiens (Human), UniProt P49841). Particulars: read-out: GSK3β Ki.
The target of assay [1] is CDK2/Cyclin E1 full length (Homo sapiens (Human), UniProt P24941). As to the kind of experiment: CDK2/Cyclin E1 full length mobility shift assay. The format is biochemical.

Chain of GSK3β (H350L) (P49841 whole entry, stated change not applied): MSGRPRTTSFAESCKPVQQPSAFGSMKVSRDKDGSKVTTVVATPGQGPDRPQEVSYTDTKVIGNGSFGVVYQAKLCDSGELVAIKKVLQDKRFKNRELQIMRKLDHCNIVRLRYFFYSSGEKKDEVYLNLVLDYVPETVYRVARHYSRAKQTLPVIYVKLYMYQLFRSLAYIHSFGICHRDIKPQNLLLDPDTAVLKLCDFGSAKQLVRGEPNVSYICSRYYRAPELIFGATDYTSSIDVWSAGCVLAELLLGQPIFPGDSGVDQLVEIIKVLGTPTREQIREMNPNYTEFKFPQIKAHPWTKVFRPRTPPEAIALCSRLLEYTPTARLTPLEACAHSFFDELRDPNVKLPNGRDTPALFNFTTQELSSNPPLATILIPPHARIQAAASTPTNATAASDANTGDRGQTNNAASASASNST
Method for GSK3β (H350L): The assay was initiated with the addition of ATP, following 15 minutes pre-incubation of enzyme and inhibitor at room temperature in the reaction mixture. The reaction was stopped after 30 minutes at room temperature by the addition of 50 μL of 80 mM EDTA.

By Ki is commonly meant a measure of affinity in units of concentration, obtained from inhibition or displacement. With `CCCNC(=O)O[C@H]1CC[C@@H](c2cc(NC(=O)c3ccc(OC)nc3)n[nH]2)C1` [Example 182, (1S,3R)-3-(3-{[(6-methoxypyridin-3-yl)carbonyl]amino}-1H-pyrazol-5-yl)cyclopentyl propylcarbamate], the Ki at GSK3β (H350L) turned out to be 90.6 nM; in assay [1] it was 0.82 nM.
On the same counts, the results for `CCCNC(=O)O[C@@H]1CC[C@H](c2cc(NC(=O)c3ccc(OC)nc3)n[nH]2)C1` [Example 183, (1R,3S)-3-(3-{[(6-methoxypyridin-3-yl)carbonyl]amino}-1H-pyrazol-5-yl)cyclopentyl propylcarbamate] are more than 95.3 nM and 3.68 nM.
In the same order, the values of `CCCNC(=O)O[C@H]1CC[C@@H](c2cc(NC(=O)c3ccnc(OC)c3)n[nH]2)C1` [Example 184, (1S,3R)-3-(3-{[(2-methoxypyridin-4-yl)carbonyl]amino}-1H-pyrazol-5-yl)cyclopentyl propylcarbamate] are more than 95.3 nM and 1.35 nM.
Turning to `CCCNC(=O)O[C@@H]1CC[C@H](c2cc(NC(=O)Cc3cnc(C)s3)n[nH]2)C1` [Example 185, (1R,3S)-3-(3-{[(2-methyl-1,3-thiazol-5-yl)acetyl]amino}-1H-pyrazol-5-yl)cyclopentyl propylcarbamate], the Ki came to 13 nM at GSK3β (H350L) and 0.71 nM in assay [1].
In the same order, the values of `CCCNC(=O)O[C@H]1CC[C@@H](c2cc(NC(=O)Cc3ccc(OC)cn3)n[nH]2)C1` [Example 186, (1S,3R)-3-(3-{[(5-methoxypyridin-2-yl)acetyl]amino}-1H-pyrazol-5-yl)cyclopentyl propylcarbamate] are 9.64 nM and 1.03 nM.
For the molecule `CCCNC(=O)O[C@@H]1CC[C@H](c2cc(NC(=O)Cc3ccc(OC)nc3)n[nH]2)C1` [Example 188, (1R,3S)-3-(3-{[(6-methoxypyridin-3-yl)acetyl]amino}-1H-pyrazol-5-yl)cyclopentyl propylcarbamate], the Ki was determined as 9.32 nM on GSK3β (H350L) and 0.44 nM in assay [1].
In the same order, the values of `CCCNC(=O)O[C@H]1CC[C@@H](c2cc(NC(=O)Cc3cnc(OC)s3)n[nH]2)C1` [Example 189, (1S,3R)-3-(3-{[(2-methoxy-1,3-thiazol-5-yl)acetyl]amino}-1H-pyrazol-5-yl)cyclopentyl propylcarbamate] are 11.4 nM and 0.38 nM.
Turning to `CCCNC(=O)O[C@@H]1CC[C@H](c2cc(NC(=O)Cc3cnc(OC)s3)n[nH]2)C1` [Example 190, (1R,3S)-3-(3-{[(2-methoxy-1,3-thiazol-5-yl)acetyl]amino}-1H-pyrazol-5-yl)cyclopentyl propylcarbamate], the figures for the Ki (on GSK3β (H350L); in assay [1]) were 26.1 nM and 0.81 nM, respectively.
Take `CCCNC(=O)O[C@H]1CC[C@@H](c2cc(Nc3ccc4c(n3)CC[C@@H]4N(C)C)n[nH]2)C1` [Example 192, (1S,3R)-3-(3-{[(5S)-5-(dimethylamino)-6,7-dihydro-5H-cyclopenta[b]pyridin-2-yl]amino}-1H-pyrazol-5-yl)cyclopentyl propylcarbamate]: the Ki at GSK3β (H350L) is more than 191 nM; in assay [1] it was 0.7 nM.
On the same counts, the results for `CCCNC(=O)O[C@H]1CC[C@@H](c2cc(NC(=O)Cc3ccccc3OCCN)n[nH]2)C1` [Example 197, (1S,3R)-3-[3-({[2-(2-aminoethoxy)phenyl]acetyl}amino)-1H-pyrazol-5-yl]cyclopentyl propylcarbamate] are more than 191 nM and 0.49 nM.
In the same order, the values of `CCCNC(=O)O[C@H]1CC[C@@H](c2cc(NC(=O)Cc3ccc(OCCN)cc3)n[nH]2)C1` [Example 198, (1S,3R)-3-[3-({[4-(2-aminoethoxy)phenyl]acetyl}amino)-1H-pyrazol-5-yl]cyclopentyl propylcarbamate] are 52.1 nM and 0.28 nM.
In the same order, the values of `CCCNC(=O)O[C@H]1CC[C@@H](c2cc(NC(=O)Cc3ccccc3S(C)(=O)=O)n[nH]2)C1` [Example 203, (1S,3R)-3-[3-({[2-(methylsulfonyl)phenyl]-acetyl}amino)-1H-pyrazol-5-yl]cyclopentyl propylcarbamate] are 34.2 nM and 0.29 nM.
For `CCCNC(=O)O[C@@H]1CC[C@H](c2cc(NC(=O)Cc3ccccc3S(=O)(=O)CC)n[nH]2)C1` [Example 205, (1R,3S)-3-[3-({[2-(ethylsulfonyl)phenyl]-acetyl}amino)-1H-pyrazol-5-yl]cyclopentyl propylcarbamate], the results for the Ki (at GSK3β (H350L); in assay [1]) were 97.7 nM and 0.76 nM, respectively.
In the case of `CCCNC(=O)O[C@@H]1CC[C@H](c2cc(NC(=O)Cc3cc(C)ccc3S(C)(=O)=O)n[nH]2)C1` [Example 206, (1R,3S)-3-[3-({[5-methyl-2-(methylsulfonyl)phenyl]acetyl}amino)-1H-pyrazol-5-yl]cyclopentyl propylcarbamate], the figures for the inhibition constant Ki (at GSK3β (H350L); in assay [1]) were more than 95.3 nM and 1.22 nM, respectively.
In the same order, the values of `CCCNC(=O)O[C@@H]1CC[C@H](c2cc(NC(=O)Cc3ccc(OC)cc3S(C)(=O)=O)n[nH]2)C1` [Example 212, (1R,3S)-3-[3-({[4-methoxy-2-(methylsulfonyl)phenyl]acetyl}amino)-1H-pyrazol-5-yl]cyclopentyl propylcarbamate] are 77.2 nM and 0.67 nM.
On the same counts, the results for `CCCNC(=O)O[C@@H]1CC[C@H](c2cc(NC(=O)Cc3cc(OC)ccc3S(C)(=O)=O)n[nH]2)C1` [Example 213, (1R,3S)-3-[3-({[5-methoxy-2-(methylsulfonyl)phenyl]acetyl}amino)-1H-pyrazol-5-yl]cyclopentyl propylcarbamate] are 183 nM and 0.32 nM.
In the same order, the values of `CCCNC(=O)O[C@@H]1CC[C@H](c2cc(NC(=O)Cc3cc(OC)ncc3S(C)(=O)=O)n[nH]2)C1` [Example 214, (1R,3S)-3-[3-({[2-methoxy-5-(methylsulfonyl)pyridin-4-yl]acetyl}amino)-1H-pyrazol-5-yl]cyclopentyl propylcarbamate] are 131 nM and 0.37 nM.
Take `Cn1cc(CC(=O)Nc2cc([C@H]3CC[C@@H](OC(=O)NCCC(F)(F)F)C3)[nH]n2)cn1` [Example 216, (1R,3S)-3-(3-{[(1-methyl-1H-pyrazol-4-yl)acetyl]amino}-1H-pyrazol-5-yl)cyclopentyl (3,3,3-trifluoropropyl)carbamate]: the results for the Ki (at GSK3β (H350L); in assay [1]) were 28.2 nM and 0.86 nM, respectively.
On the same counts, the results for `Cc1cnc(CC(=O)Nc2cc([C@H]3CC[C@@H](OC(=O)NCCC(F)(F)F)C3)[nH]n2)o1` [Example 218, (1R,3S)-3-(3-{[(5-methyl-1,3-oxazol-2-yl)acetyl]amino}-1H-pyrazol-5-yl)cyclopentyl (3,3,3-trifluoropropyl)carbamate] are 30.6 nM and 2.09 nM.
Take `CCNC(=O)O[C@@H]1CC[C@H](c2cc(NC(=O)Cc3ccno3)n[nH]2)C1` [Example 226, (1R,3S)-3-{3-[(1,2-oxazol-5-ylacetyl)amino]-1H-pyrazol-5-yl}cyclopentyl ethylcarbamate]: the values for the Ki (on GSK3β (H350L); in assay [1]) were 132 nM and 3.72 nM, respectively.
In the same order, the values of `CCNC(=O)O[C@@H]1CC[C@H](c2cc(NC(=O)Cc3ccc(C)nc3)n[nH]2)C1` [Example 227, (1R,3S)-3-(3-{[(6-methylpyridin-3-yl)acetyl]amino}-1H-pyrazol-5-yl)cyclopentyl ethylcarbamate] are 18.9 nM and 1.21 nM.
In the same order, the values of `CCNC(=O)O[C@@H]1CC[C@H](c2cc(NC(=O)Cc3ccc(OC)cc3)n[nH]2)C1` [Example 230, (1R,3S)-3-(3-{[(4-methoxyphenyl)acetyl]amino}-1H-pyrazol-5-yl)cyclopentyl ethylcarbamate] are 48.6 nM and 1.55 nM.
In the same order, the values of `CCNC(=O)O[C@@H]1CC[C@H](c2cc(NC(=O)Cc3ccc(OC)nc3)n[nH]2)C1` [Example 231, (1R,3S)-3-(3-{[(6-methoxypyridin-3-yl)acetyl]amino}-1H-pyrazol-5-yl)cyclopentyl ethylcarbamate] are 15.6 nM and 1.18 nM.
For `CCNC(=O)O[C@@H]1CC[C@H](c2cc(NC(=O)Cc3ccnc(OC)c3)n[nH]2)C1` [Example 232, (1R,3S)-3-(3-{[(2-methoxypyridin-4-yl)acetyl]amino}-1H-pyrazol-5-yl)cyclopentyl ethylcarbamate], the Ki at GSK3β (H350L) is 34.1 nM; in assay [1], 1.54 nM.
On the same counts, the results for `CCNC(=O)O[C@@H]1CC[C@H](c2cc(NC(=O)Cc3cc(F)cc(F)c3)n[nH]2)C1` [Example 233, (1R,3S)-3-(3-{[(3,5-difluorophenyl)acetyl]amino}-1H-pyrazol-5-yl)cyclopentyl ethylcarbamate] are 43.4 nM and 0.85 nM.
In the case of `CCN(C)C(=O)O[C@@H]1CC[C@H](c2cc(NC(=O)Cc3ccc(C)nc3)n[nH]2)C1` [Example 237, (1R,3S)-3-(3-{[(6-methylpyridin-3-yl)acetyl]amino}-1H-pyrazol-5-yl)cyclopentyl ethyl(methyl)carbamate], the Ki is 5.23 nM at GSK3β (H350L) and 0.64 nM in assay [1].
Consider `CCN(C)C(=O)O[C@@H]1CC[C@H](c2cc(NC(=O)Cc3ccc(F)cc3)n[nH]2)C1` [Example 238, (1R,3S)-3-(3-{[(4-fluorophenyl)acetyl]amino}-1H-pyrazol-5-yl)cyclopentyl ethyl(methyl)carbamate], for which the Ki at GSK3β (H350L) stood at 14.7 nM; in assay [1], 1.13 nM.
In the same order, the values of `CCN(C)C(=O)O[C@@H]1CC[C@H](c2cc(NC(=O)Cc3cnc(C)s3)n[nH]2)C1` [Example 239, (1R,3S)-3-(3-{[(2-methyl-1,3-thiazol-5-yl)acetyl]amino}-1H-pyrazol-5-yl)cyclopentyl ethyl(methyl)carbamate] are 9.44 nM and 1.15 nM.
On the same counts, the results for `CCN(C)C(=O)O[C@@H]1CC[C@H](c2cc(NC(=O)Cc3ccc(OC)cc3)n[nH]2)C1` [Example 240, (1R,3S)-3-(3-{[(4-methoxyphenyl)acetyl]amino}-1H-pyrazol-5-yl)cyclopentyl ethyl(methyl)carbamate] are 16.1 nM and 0.73 nM.
